Results as given in patent publication US10829473B2, “Modulators of the cystic fibrosis transmembrane conductance regulator protein and methods of use” (AbbVie Overseas S.Á.R.L., priority 2017, dated 2020).
Where two headings read alike, the source gives them in different places.

Target: T1, F508delCFTR (Homo sapiens, UniProt P13569, DEL508-508)
T1 construct: expressed in transfected cells; host or cells: CFBE41o- human lung derived epithelial cells (CFBE41o-F508delCFTR-HRP), doxycycline-inducible
T1 sequence (P13569 with tags, fused parts or gaps DEL508-508): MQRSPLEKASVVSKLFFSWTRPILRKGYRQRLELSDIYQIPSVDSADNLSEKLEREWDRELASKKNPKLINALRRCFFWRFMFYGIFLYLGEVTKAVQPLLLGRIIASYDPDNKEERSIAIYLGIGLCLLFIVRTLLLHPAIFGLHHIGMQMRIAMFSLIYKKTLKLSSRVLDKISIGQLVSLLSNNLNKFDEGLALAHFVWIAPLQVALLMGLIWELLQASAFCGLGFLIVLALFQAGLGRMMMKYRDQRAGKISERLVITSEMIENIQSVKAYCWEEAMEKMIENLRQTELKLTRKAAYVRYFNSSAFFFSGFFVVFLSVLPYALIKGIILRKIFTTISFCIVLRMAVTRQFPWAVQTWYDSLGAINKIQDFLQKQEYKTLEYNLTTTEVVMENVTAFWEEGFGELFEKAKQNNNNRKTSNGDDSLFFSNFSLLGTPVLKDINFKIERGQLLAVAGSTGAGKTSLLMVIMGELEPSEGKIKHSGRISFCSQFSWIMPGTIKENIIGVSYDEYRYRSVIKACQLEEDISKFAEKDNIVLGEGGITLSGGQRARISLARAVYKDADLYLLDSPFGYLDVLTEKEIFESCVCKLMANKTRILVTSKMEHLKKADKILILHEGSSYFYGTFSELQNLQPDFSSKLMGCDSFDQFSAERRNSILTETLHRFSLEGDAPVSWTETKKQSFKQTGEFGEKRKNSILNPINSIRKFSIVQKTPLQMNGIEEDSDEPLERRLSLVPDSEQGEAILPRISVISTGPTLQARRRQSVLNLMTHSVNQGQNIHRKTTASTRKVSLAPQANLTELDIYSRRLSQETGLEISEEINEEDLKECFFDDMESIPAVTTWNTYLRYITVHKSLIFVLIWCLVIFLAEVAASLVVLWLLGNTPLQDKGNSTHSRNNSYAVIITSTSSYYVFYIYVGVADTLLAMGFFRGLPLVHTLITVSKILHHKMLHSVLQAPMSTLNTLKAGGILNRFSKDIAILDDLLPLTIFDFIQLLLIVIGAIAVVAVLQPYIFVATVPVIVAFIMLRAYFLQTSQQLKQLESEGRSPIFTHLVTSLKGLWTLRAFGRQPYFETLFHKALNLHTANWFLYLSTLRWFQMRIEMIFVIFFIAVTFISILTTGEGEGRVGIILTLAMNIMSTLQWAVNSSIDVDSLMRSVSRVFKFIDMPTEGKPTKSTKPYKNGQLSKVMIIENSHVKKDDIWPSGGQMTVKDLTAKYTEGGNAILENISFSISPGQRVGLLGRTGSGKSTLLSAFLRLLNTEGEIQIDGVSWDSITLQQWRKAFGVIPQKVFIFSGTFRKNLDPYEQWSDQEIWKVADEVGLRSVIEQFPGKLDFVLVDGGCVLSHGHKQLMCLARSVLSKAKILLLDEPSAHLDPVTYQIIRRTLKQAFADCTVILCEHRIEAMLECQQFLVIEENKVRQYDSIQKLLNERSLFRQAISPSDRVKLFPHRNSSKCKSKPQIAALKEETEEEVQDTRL
Test: Cell Surface Expression-Horse Radish Peroxidase (CSE-HRP) Assay;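 on EC50 (with co-corrector): co-corrector chromenyl benzoic acid corrector at 2 or 3 µM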;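 on Maximum % activity (without co-corrector): % of on-plate positive control chromenyl benzoic acid corrector at 2 or 3 µM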
Type: cell-based
Conditions: for Maximum % activity (with co-corrector) / Emax: maximum at any tested concentration; for Emax: read-out: Maximum % activity (without co-corrector)
Procedure, shortened: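 Corrector compounds were given as 8-point 3-fold series from 20 or 30 μM, with or without a 2 μM co-corrector, for 18-24 h at 33 °C. Surface HRP was read by luminol luminescence as % of positive control; variable-Hill-slope sigmoidal fitting gave EC50 from triplicate plates.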

[1] = test compound alone, without co-corrector, read-out: EC50 (without co-corrector)
[2] = with co-corrector, read-out: EC50 (with co-corrector)

SMILES | EC50 [1] [µM] | Maximum % activity (with co-corrector) (with co-corrector) | EC50 [2] [µM] | Emax (without co-corrector) [%]
Cc1ccc(C)c(C2(C(=O)NS(=O)(=O)c3cccc4nc(N)ccc34)CC2)c1 [Example I-81, N-(2-aminoquinoline-5-sulfonyl)-1-(2,5-dimethylphenyl)cyclopropane-1-carboxamide] | < 3 | +++ (≥350) | < 3 | > 150
CCOc1ccc(C)cc1C1(C(=O)NS(=O)(=O)c2cccc3ncccc23)CC1 [Example I-82, 1-(2-ethoxy-5-methylphenyl)-N-(quinoline-5-sulfonyl)cyclopropane-1-carboxamide] | < 3 | +++ (≥350) | < 3 | > 150
CCOc1ccc(C)cc1C1(C(=O)NS(=O)(=O)c2cccc3nc(C)ccc23)CC1 [Example I-83, 1-(2-ethoxy-5-methylphenyl)-N-(2-methylquinoline-5-sulfonyl)cyclopropane-1-carboxamide] | < 3 | +++ (≥350) | < 3 | > 150
CCc1ccc(OC)c(C2(C(=O)NS(=O)(=O)c3cccc4nc(C)ccc34)CC2)c1 [Example I-84, 1-(5-ethyl-2-methoxyphenyl)-N-(2-methylquinoline-5-sulfonyl)cyclopropane-1-carboxamide] | < 3 | +++ (≥350) | < 3 | > 150
CNC1(c2ccc(OC)c(C3(C(=O)NS(=O)(=O)c4cccc5ncccc45)CC3)c2)CC1 [Example I-85, 1-{2-methoxy-5-[1-(methylamino)cyclopropyl]phenyl}-N-(quinoline-5-sulfonyl)cyclopropane-1-carboxamide] | > 10 | ++ (≥150 and <350) | 3 to 10 | < 50
COc1cc(C2CCC2)cc(OC)c1C1(C(=O)NS(=O)(=O)c2cccc3[nH]ccc23)CC1 [Example I-86, 1-(4-cyclobutyl-2,6-dimethoxyphenyl)-N-(1H-indole-4-sulfonyl)cyclopropane-1-carboxamide] | < 3 | +++ (≥350) | < 3 | > 150
Cc1ccc(OC(C)C)c(C2(C(=O)NS(=O)(=O)c3cccc4nc(N)ccc34)CC2)c1 [Example I-87, N-(2-aminoquinoline-5-sulfonyl)-1-{5-methyl-2-[(propan-2-yl)oxy]phenyl}cyclopropane-1-carboxamide] | < 3 | +++ (≥350) | < 3 | > 150
COc1ccc(C2(OC)CCC2)cc1C1(C(=O)NS(=O)(=O)c2cccc3ncccc23)CC1 [Example I-88, 1-[2-methoxy-5-(1-methoxycyclobutyl)phenyl]-N-(quinoline-5-sulfonyl)cyclopropane-1-carboxamide] | 3 to 10 | +++ (≥350) | < 3 | > 150
CCOc1ccc(C)cc1C1(C(=O)NS(=O)(=O)c2cccc3nc(N)ccc23)CC1 [Example I-89, N-(2-aminoquinoline-5-sulfonyl)-1-(2-ethoxy-5-methylphenyl)cyclopropane-1-carboxamide] | < 3 | +++ (≥350) | < 3 | > 150
COc1ccc(C2COC2)cc1C1(C(=O)NS(=O)(=O)c2cccc3ncccc23)CC1 [Example I-90, 1-[2-methoxy-5-(oxetan-3-yl)phenyl]-N-(quinoline-5-sulfonyl)cyclopropane-1-carboxamide] | 3 to 10 | +++ (≥350) | 3 to 10 | 50 to 150
CCOc1ccc(C)cc1C1(C(=O)NS(=O)(=O)c2cccc3[nH]c(C)cc23)CC1 [Example I-91, 1-(2-ethoxy-5-methylphenyl)-N-(2-methyl-1H-indole-4-sulfonyl)cyclopropane-1-carboxamide] | < 3 | +++ (≥350) | < 3 | > 150

Other lines, results leading:

EC50 [1] [µM] | Maximum % activity (with co-corrector) (with co-corrector) | EC50 [2] [µM] | Emax (without co-corrector) [%] | SMILES
< 3 | +++ (≥350) | < 3 | > 150 | COc1cc(C2(C(=O)NS(=O)(=O)c3cccc4nc(N)ccc34)CC2)c(OCC(C)C)cn1 [Example I-92, N-(2-aminoquinoline-5-sulfonyl)-1-[2-methoxy-5-(2-methylpropoxy)pyridin-4-yl]cyclopropane-1-carboxamide]
3 to 10 | +++ (≥350) | < 3 | > 150 | Cc1ccc(OC2COC2)c(C2(C(=O)NS(=O)(=O)c3cccc4ncccc34)CC2)c1 [Example I-93, 1-{5-methyl-2-[(oxetan-3-yl)oxy]phenyl}-N-(quinoline-5-sulfonyl)cyclopropane-1-carboxamide]
< 3 | +++ (≥350) | < 3 | > 150 | CCc1cnc(OCC(C)C)c(C2(C(=O)NS(=O)(=O)c3cccc4[nH]ncc34)CC2)c1 [Example I-94, 1-[5-ethyl-2-(2-methylpropoxy)pyridin-3-yl]-N-(1H-indazole-4-sulfonyl)cyclopropane-1-carboxamide]
< 3 | +++ (≥350) | < 3 | > 150 | COC[C@@H](C)Oc1ccc(C)cc1C1(C(=O)NS(=O)(=O)c2cccc3ncccc23)CC1 [Example I-95, 1-(2-{[(2R)-1-methoxypropan-2-yl]oxy}-5-methylphenyl)-N-(quinoline-5-sulfonyl)cyclopropane-1-carboxamide]
< 3 | +++ (≥350) | < 3 | > 150 | Cc1cnc(OCC(C)C)c(C2(C(=O)NS(=O)(=O)c3cccc4nc(N)ccc34)CC2)c1 [Example I-96, N-(2-aminoquinoline-5-sulfonyl)-1-[5-methyl-2-(2-methylpropoxy)pyridin-3-yl]cyclopropane-1-carboxamide]
< 3 | +++ (≥350) | < 3 | > 150 | Cc1cnc(OC(C)C)c(C2(C(=O)NS(=O)(=O)c3cccc4nc(N)ccc34)CC2)c1 [Example I-97, N-(2-aminoquinoline-5-sulfonyl)-1-{5-methyl-2-[(propan-2-yl)oxy]pyridin-3-yl}cyclopropane-1-carboxamide]
< 3 | +++ (≥350) | < 3 | > 150 | CCc1cnc(OCC(C)C)c(C2(C(=O)NS(=O)(=O)c3cccc4nc(N)ccc34)CC2)c1 [Example I-98, N-(2-aminoquinoline-5-sulfonyl)-1-[5-ethyl-2-(2-methylpropoxy)pyridin-3-yl]cyclopropane-1-carboxamide]
< 3 | +++ (≥350) | < 3 | > 150 | CCOc1ccc(C(C)(C)OCC)cc1C1(C(=O)NS(=O)(=O)c2cccc3ncccc23)CC1 [Example I-99, 1-[2-ethoxy-5-(2-ethoxypropan-2-yl)phenyl]-N-(quinoline-5-sulfonyl)cyclopropane-1-carboxamide]
< 3 | +++ (≥350) | < 3 | > 150 | Cc1ccc(OC(F)F)c(C2(C(=O)NS(=O)(=O)c3cccc4ncccc34)CC2)c1 [Example I-100, 1-[2-(difluoromethoxy)-5-methylphenyl]-N-(quinoline-5-sulfonyl)cyclopropane-1-carboxamide]
< 3 | +++ (≥350) | < 3 | > 150 | CCOc1ccc(C(C)(C)COC)cc1C1(C(=O)NS(=O)(=O)c2cccc3ncccc23)CC1 [Example I-101, 1-[2-ethoxy-5-(1-methoxy-2-methylpropan-2-yl)phenyl]-N-(quinoline-5-sulfonyl)cyclopropane-1-carboxamide]
< 3 | +++ (≥350) | < 3 | > 150 | CCOc1ccc(C2(OC)CCC2)cc1C1(C(=O)NS(=O)(=O)c2cccc3ncccc23)CC1 [Example I-102, 1-[2-ethoxy-5-(1-methoxycyclobutyl)phenyl]-N-(quinoline-5-sulfonyl)cyclopropane-1-carboxamide]
< 3 | +++ (≥350) | < 3 | > 150 | CCOc1ccc(C(C)(C)OCC)cc1C1(C(=O)NS(=O)(=O)c2cccc3nc(C)ccc23)CC1 [Example I-103, 1-[2-ethoxy-5-(2-ethoxypropan-2-yl)phenyl]-N-(2-methylquinoline-5-sulfonyl)cyclopropane-1-carboxamide]
< 3 | +++ (≥350) | < 3 | > 150 | CCOc1ccc(C(C)(C)OC)cc1C1(C(=O)NS(=O)(=O)c2cccc3nc(C)ccc23)CC1 [Example I-104, 1-[2-ethoxy-5-(2-methoxypropan-2-yl)phenyl]-N-(2-methylquinoline-5-sulfonyl)cyclopropane-1-carboxamide]
< 3 | +++ (≥350) | < 3 | > 150 | CCOc1ccc(C2(OC)CCC2)cc1C1(C(=O)NS(=O)(=O)c2cccc3nc(C)ccc23)CC1 [Example I-105, 1-[2-ethoxy-5-(1-methoxycyclobutyl)phenyl]-N-(2-methylquinoline-5-sulfonyl)cyclopropane-1-carboxamide]
3 to 10 | +++ (≥350) | < 3 | > 150 | Cc1ccc(OC2COC2)c(C2(C(=O)NS(=O)(=O)c3cccc4nc(C)ccc34)CC2)c1 [Example I-106, 1-{5-methyl-2-[(oxetan-3-yl)oxy]phenyl}-N-(2-methylquinoline-5-sulfonyl)cyclopropane-1-carboxamide]
